Experimental data from patent publication US5990277A, “Semipeptoid farnesyl protein transferase inhibitors and analogs thereof” (Yissum Research Development Company of the Herbrew …, priority 1996, dated 1999).

Assays:
[1] = test system: met18b-2 cells; details: cited from earlier work
[2] = test system: tumors in nude mice; details: cited from earlier work
[3] = test system: human adenocarcinoma cell line PSN-1; details: PSN-1 cells, altered K-ras and p53 genes; cited from earlier work
[4] = biological target: farnesyl protein transferase (Homo sapiens, UniProt P49354+P49356); details: literature; cited from earlier work
[5] = test system: protein farnesyl transferase in cells; details: cited from earlier work
[6] = test system: RatI cells transformed with viral H-ras; details: cited from earlier work
[7] = test system: MMTV-v-Ha-ras transgenic mice bearing palpable tumors; details: daily administration; cited from earlier work
[8] = test system: Ras processing in cells transformed with v-ras; details: cited from earlier work
[9] = test system: v-ras-transformed cells; details: cited from earlier work
[10] = test system: cells transformed by either v-raf or v-mos oncogenes; details: cited from earlier work
[11] = test system: Rap1A/K-rev processing in v-Ha-ras transformed NIH3T3 cells; assay: Protein processing assay in intact cells: Rap1A/K-rev; type: cell-based
Protocol: Its selectivity towards FT as compared to GGT in whole cells, was determined by its relative inhibitory effects on Ras farnesylation and on Rap1A/Krev geranylgeranylation (Casey, J. Lipid Res. 1992, 33, 1731-1740; Cox et al., Curr. Opin. Cell Biol. 1992, 4, 1008-1016; Garcia et al., J. Biol. Chem. 1993, 268, 18415-18418; and Vogt et al., J. Biol. Chem. 1995, 270, 660-664), respectively. v-Ha-ras transformed NIH3T3 cells were incubated with lovastatin or increasing concentrations of the inhibitor. Cells were lysed and the processed and unprocessed forms of Ras or Rap1A were separated by SDS-PAGE and immunoblotted with anti-Ras or anti-Rap1A antibodies, respectively.
To test the selectivity of compound 12 towards FT in whole cells, the post-translational processing of an endogenous geranylgeranylated protein, Rap1A/K-rev, was analyzed.
v-Ha-ras transformed NIH3T3 fibroblasts were treated with 15 mM lovastatin or the indicated concentrations of compound 12 or vehicle (0.25 mM DTT, 0.25% DMSO), for 48 hr. Cells were lysed (Garcia et al., J. Biol. Chem. 1993, 268, 18415-18418) in 1% Nonidet P-40, 5 mM TRIS.HCl pH 8.0, 5 mM EDTA, 1 mM phenylmethylsulfonyl fluoride, 10 mg/ml aprotonin, 10 mg/ml soybean trypsin inhibitor and 313 mg/ml benzamidine. The lysate was separated by centriflgation and the supernatant used as cell extract. […]

[12] = test system: Ras processing in v-Ha-ras transformed NIH3T3 cells; assay: Protein processing assay in intact cells: Ras; type: cell-based; details: 48 hr incubation, western blot
Protocol: Its selectivity towards FT as compared to GGT in whole cells, was determined by its relative inhibitory effects on Ras farnesylation and on Rap1A/Krev geranylgeranylation (Casey, J. Lipid Res. 1992, 33, 1731-1740; Cox et al., Curr. Opin. Cell Biol. 1992, 4, 1008-1016; Garcia et al., J. Biol. Chem. 1993, 268, 18415-18418; and Vogt et al., J. Biol. Chem. 1995, 270, 660-664), respectively. v-Ha-ras transformed NIH3T3 cells were incubated with lovastatin or increasing concentrations of the inhibitor. Cells were lysed and the processed and unprocessed forms of Ras or Rap1A were separated by SDS-PAGE and immunoblotted with anti-Ras or anti-Rap1A antibodies, respectively. Lovastatin is a compound which blocks the processing of isoprenylated proteins in cells by inhibiting an early step of the isoprenoid biosynthetic pathway, and therefore serves as a positive control for the inhibition of both geraylgeranylation and farnesylation (Kohl et al., Science 1993, 260, 1934-1937; Garcia et al., J. Biol. Chem. 1993, 268, 18415-18418; Vogt et al., J. Biol. Chem. 1995, 270, 660-664).
After 48 hr of incubation, cell extracts were separated on SDS-PAGE and immunoblotted with anti-Ras antibody.
Cells were lysed (Garcia et al., J. Biol. Chem. 1993, 268, 18415-18418) in 1% Nonidet P-40, 5 mM TRIS.HCl pH 8.0, 5 mM EDTA, 1 mM phenylmethylsulfonyl fluoride, 10 mg/ml aprotonin, 10 mg/ml soybean trypsin inhibitor and 313 mg/ml benzamidine. The lysate was separated by centriflgation and the supernatant used as cell extract. Total protein was separated by SDS-PAGE (40 mg/lane) in 15% acrylamide (0.4% bis-acrylamide) gels, transferred onto nitrocellulose (Schleicher & Schuell, optitran BA-S 85) and probed with anti-Ras antibody Y13-259, or monoclonal anti-Rap1A/K-rev antibody (transduction laboratories). The western blots were visualized using an enhanced chemiluminescence (ECL) detection system.

## COC(=O)[C@H](CCSC)NC(=O)CN1C(=O)C(N(C)C(=O)[C@@H](N)CS)N=C(c2ccccc2)c2ccccc21 (stereo partly drawn) [BZA-5B]
[1]
  inhibitory potency in cells versus parent compound BZA-2B: much more potent inhibitor

## CC[C@H](C)[C@@H](CO[C@@H](Cc1ccccc1)C(=O)N[C@@H](CCS(C)(=O)=O)C(=O)OC)NC[C@@H](N)CS [L-739,749]
[2]
  growth of tumors: suppress the growth of tumors
[3]
  anchorage-independent growth: inhibit the anchorage-independent growth
[4]
  farnesyl protein transferase inhibitory potency in vitro: moderate inhibitor
[5]
  inhibitory activity in cells compared to compound L-739,750: superior inhibitory activity
[6]
  anchorage-independent growth: suppressing the anchorage-independent growth

## CC[C@H](C)[C@@H](CO[C@@H](Cc1ccccc1)C(=O)N[C@@H](CCS(C)(=O)=O)C(=O)OC(C)C)NC[C@@H](N)CS [L-744,832]
[7]
  tumor response: caused tumor regression
[4]
  farnesyl protein transferase inhibitory potency in vitro: potent and selective inhibitor

## CC[C@H](C)[C@H](NC[C@@H](NC[C@@H](N)CS)[C@@H](C)CC)C(=O)NC1CCOC1=O (stereo partly drawn) [L-731,734, N-{2(S)-[2(R)-amino-3-mercaptopropylamino]-3(S)-methylpentyl}isoleucyl-homoserine lactone]
[8]
  effect on Ras processing in cells: efficiently inhibit Ras processing
[4]
  farnesyl protein transferase inhibitory potency in vitro: less potent
[9]
  colony formation in soft agar: decreasing the ability of v-ras-transformed cells to form colonies
[10]
  efficiency of colony transformation: no effect on the efficiency of colony transformation

## methyl ester Derivative of cysteinyl-(Nα-methyl)valyl-(Nα-cyclohexyl)glycyl-methionine [Semipeptoid 12]
[11]
  effect on Rap1A/K-rev processing: not affected
[12]
  concentration range of dose dependent shift of Ras towards its unprocessed form: 1 to 160 mM
[12]; read-out: in situ IC50 (shift of Ras towards its unprocessed form)
  IC50: 10 µM
